From patent publication US20250034170A1, “SMALL MOLECULE MODULATORS OF GLUCOCEREBROSIDASE ACTIVITY AND USES THEREOF” (Vanqua Bio, Inc., priority 2021, published 2025)

The molecules below were run against T1, GCase (Homo sapiens, UniProt P04062) (assay: activation of GCase in a live cell PFB assay in HELA cells). Details: activation of GCase, EC50 ranges.
T1 construct: endogenous in cells; host or cells: HeLa cells
T1 sequence (P04062 40-536): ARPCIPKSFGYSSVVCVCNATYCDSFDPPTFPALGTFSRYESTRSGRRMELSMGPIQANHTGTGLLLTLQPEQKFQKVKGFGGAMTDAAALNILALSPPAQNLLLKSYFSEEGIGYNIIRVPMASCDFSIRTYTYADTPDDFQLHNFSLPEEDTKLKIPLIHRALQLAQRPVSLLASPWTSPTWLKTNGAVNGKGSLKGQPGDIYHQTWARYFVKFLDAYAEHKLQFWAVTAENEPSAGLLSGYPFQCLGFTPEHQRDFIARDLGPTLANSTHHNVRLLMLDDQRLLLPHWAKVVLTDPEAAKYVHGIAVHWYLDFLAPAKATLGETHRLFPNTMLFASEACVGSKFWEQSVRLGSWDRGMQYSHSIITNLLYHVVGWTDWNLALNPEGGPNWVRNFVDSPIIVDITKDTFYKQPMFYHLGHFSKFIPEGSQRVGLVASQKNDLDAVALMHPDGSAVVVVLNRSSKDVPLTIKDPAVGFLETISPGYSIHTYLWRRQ
Format: cell-based
Experimental: Exemplary compounds were evaluated for activation of GCase in a live cell PFB assay in HELA cells (essentially as described in Ysselstein et al., “LRRK2 kinase activity regulates lysosomal glucocerebrosidase in neurons derived from Parkinson's disease patients” Nature Communications (2019) 10:5570). […] EC50 ranges: A: <10 μM; B: >10-50 μM; C: >50-100 μM; D: >100 μM.

First: FC(F)Cn1ncc2ncc(N3CC4(CCN(c5cccnc5C(F)(F)F)CC4)C3)nc21 [Compound 129, 2-[1-(2,2-difluoroethyl)-1H-pyrazolo[3,4-b]pyrazin-6-yl]-7-[2-(trifluoromethyl)pyridin-3-yl]-2,7-diazaspiro[3.5]nonane]
Second: FC(F)Cn1ncc2ncc(N3CCC4(CC3)CCN(c3cccnc3C(F)(F)F)C4)nc21 [Compound 146, 8-[1-(2,2-difluoroethyl)-1H-pyrazolo[3,4-b]pyrazin-6-yl]-2-[2-(trifluoromethyl)pyridin-3-yl]-2,8-diazaspiro[4.5]decane]
The EC50 of the first is higher: 10 to 50 µM for the first, < 10 µM for the second. The second is the more potent here.

First: FC(F)Cn1ncc2ncc(NC3CCC4(CC3)CN(c3cccc(C(F)(F)F)n3)C4)nc21 [Compound 130, N-[1-(2,2-difluoroethyl)-1H-pyrazolo[3,4-b]pyrazin-6-yl]-2-[6-(trifluoromethyl)pyridin-2-yl]-2-azaspiro[3.5]nonan-7-amine]
Second: FC(F)Cn1ncc2ncc(N3CCC4(CCN(c5cccc(C(F)(F)F)n5)C4)CC3)nc21 [Compound 143, 8-[1-(2,2-difluoroethyl)-1H-pyrazolo[3,4-b]pyrazin-6-yl]-2-[6-(trifluoromethyl)pyridin-2-yl]-2,8-diazaspiro[4.5]decane]
The EC50 of the first is higher: 10 to 50 µM for the first, < 10 µM for the second. The second is the more potent here.

First: FC(F)Cn1ncc2ncc(N3CC4(CC(COc5cccnc5C(F)(F)F)C4)C3)nc21 [Compound 131, 2-[1-(2,2-difluoroethyl)-1H-pyrazolo[3,4-b]pyrazin-6-yl]-6-({[2-(trifluoromethyl)pyridin-3-yl]oxy}methyl)-2-azaspiro[3.3]heptane]
Second: FC(F)Cn1ncc2ncc(N3CC4(CC(COc5cc(C(F)(F)F)ccn5)C4)C3)nc21 [Compound 132, 2-[1-(2,2-difluoroethyl)-1H-pyrazolo[3,4-b]pyrazin-6-yl]-6-({[4-(trifluoromethyl)pyridin-2-yl]oxy}methyl)-2-azaspiro[3.3]heptane]
The EC50 of the first is lower: < 10 µM for the first, 10 to 50 µM for the second.

`FC(F)Cn1ncc2ncc(N3CC4(CC(COc5ccc(C(F)(F)F)nc5)C4)C3)nc21` [Compound 133, 2-[1-(2,2-difluoroethyl)-1H-pyrazolo[3,4-b]pyrazin-6-yl]-6-({[6-(trifluoromethyl)pyridin-3-yl]oxy}methyl)-2-azaspiro[3.3]heptane] and `FC(F)Cn1ncc2ncc(N3CC4(CC(COc5cccc(C(F)(F)F)n5)C4)C3)nc21` [Compound 134, 2-[1-(2,2-difluoroethyl)-1H-pyrazolo[3,4-b]pyrazin-6-yl]-6-({[6-(trifluoromethyl)pyridin-2-yl]oxy}methyl)-2-azaspiro[3.3]heptane] cannot be ordered by EC50: < 10 µM for the first, < 10 µM for the second.

Compared with `O=C1N(c2cccnc2C(F)(F)F)CCC12CCN(c1cnc3cnn(CC(F)F)c3n1)CC2` [Compound 135, 8-[1-(2,2-difluoroethyl)-1H-pyrazolo[3,4-b]pyrazin-6-yl]-2-[2-(trifluoromethyl)pyridin-3-yl]-2,8-diazaspiro[4.5]decan-1-one], `FC(F)Cn1ncc2ncc(N3CCC4(CC3)CCN(c3ncccc3C(F)(F)F)C4)nc21` [Compound 145, 8-[1-(2,2-difluoroethyl)-1H-pyrazolo[3,4-b]pyrazin-6-yl]-2-[3-(trifluoromethyl)pyridin-2-yl]-2,8-diazaspiro[4.5]decane] is lower in EC50: 50 to 100 µM for the first, 10 to 50 µM for the second. The second is the more potent here.

First: FC(F)(F)Cn1ncc2ncc(N3CC4(CCCN(c5ccc(C(F)(F)F)nc5)C4)C3)nc21 [Compound 136, 2-[1-(2,2,2-trifluoroethyl)-1H-pyrazolo[3,4-b]pyrazin-6-yl]-6-[6-(trifluoromethyl)pyridin-3-yl]-2,6-diazaspiro[3.5]nonane]
Second: Cc1nn(CC(F)F)c2nc(N3CC4(CCCN(c5ccc(C(F)(F)F)nc5)C4)C3)cnc12 [Compound 137, 2-[1-(2,2-difluoroethyl)-3-methyl-1H-pyrazolo[3,4-b]pyrazin-6-yl]-6-[6-(trifluoromethyl)pyridin-3-yl]-2,6-diazaspiro[3.5]nonane]
The EC50 of the first is lower: 10 to 50 µM for the first, > 100 µM for the second.

`FC(F)(F)c1ccc(N2CCCC3(C2)CN(c2cncc(-c4nncs4)n2)C3)cn1` [Compound 138, 2-[6-(1,3,4-thiadiazol-2-yl)pyrazin-2-yl]-6-[6-(trifluoromethyl)pyridin-3-yl]-2,6-diazaspiro[3.5]nonane] and `FC(F)(F)c1ccnc(N2CCC3(CC2)CCN(c2cncc(-c4nncs4)n2)C3)c1` [Compound 141, 2-[6-(1,3,4-thiadiazol-2-yl)pyrazin-2-yl]-8-[4-(trifluoromethyl)pyridin-2-yl]-2,8-diazaspiro[4.5]decane] fall in the same range of EC50: 10 to 50 µM for the first, 10 to 50 µM for the second.

Compared with `FC(F)(F)Cn1ncc2ncc(N3CCC4(CCN(c5cc(C(F)(F)F)ccn5)CC4)C3)nc21` [Compound 139, 2-[1-(2,2,2-trifluoroethyl)-1H-pyrazolo[3,4-b]pyrazin-6-yl]-8-[4-(trifluoromethyl)pyridin-2-yl]-2,8-diazaspiro[4.5]decane], `O=C1N(c2cc(C(F)(F)F)ccn2)CCC12CCN(c1cnc3cnn(CC(F)(F)F)c3n1)CC2` [Compound 142, 8-[1-(2,2,2-trifluoroethyl)-1H-pyrazolo[3,4-b]pyrazin-6-yl]-2-[4-(trifluoromethyl)pyridin-2-yl]-2,8-diazaspiro[4.5]decan-1-one] is lower in EC50: 10 to 50 µM for the first, < 10 µM for the second. The second is the more potent here.

First: Cc1nn(CC(F)F)c2nc(N3CCC4(CCN(c5cc(C(F)(F)F)ccn5)CC4)C3)cnc12 [Compound 140, 2-[1-(2,2-difluoroethyl)-3-methyl-1H-pyrazolo[3,4-b]pyrazin-6-yl]-8-[4-(trifluoromethyl)pyridin-2-yl]-2,8-diazaspiro[4.5]decane]
Second: FC(F)Cn1ncc2ncc(N3CCC4(CCN(c5ccc(C(F)(F)F)cn5)C4)CC3)nc21 [Compound 144, 8-[1-(2,2-difluoroethyl)-1H-pyrazolo[3,4-b]pyrazin-6-yl]-2-[5-(trifluoromethyl)pyridin-2-yl]-2,8-diazaspiro[4.5]decane]
The EC50 of the first is higher: 10 to 50 µM for the first, < 10 µM for the second. The second is the more potent here.

`FC(F)Cn1ncc2ncc(N3CCC4(CCN(c5ccc(C(F)(F)F)nc5)C4)CC3)nc21` [Compound 147, 8-[1-(2,2-difluoroethyl)-1H-pyrazolo[3,4-b]pyrazin-6-yl]-2-[6-(trifluoromethyl)pyridin-3-yl]-2,8-diazaspiro[4.5]decane] and `FC(F)Cn1ncc2ncc(N3CCC4(CCN(c5ccc(C(F)(F)F)nc5)CC4)C3)nc21` [Compound 152, 2-[1-(2,2-difluoroethyl)-1H-pyrazolo[3,4-b]pyrazin-6-yl]-8-[6-(trifluoromethyl)pyridin-3-yl]-2,8-diazaspiro[4.5]decane] cannot be ordered by EC50: < 10 µM for the first, < 10 µM for the second.

`FC(F)Cn1ncc2ncc(N3CCC4(CCN(c5cncc(C(F)(F)F)c5)C4)CC3)nc21` [Compound 148, 8-[1-(2,2-difluoroethyl)-1H-pyrazolo[3,4-b]pyrazin-6-yl]-2-[5-(trifluoromethyl)pyridin-3-yl]-2,8-diazaspiro[4.5]decane] and `FC(F)Cn1ncc2ncc(N3CCC4(CCN(c5cncc(C(F)(F)F)c5)CC4)C3)nc21` [Compound 153, 2-[1-(2,2-difluoroethyl)-1H-pyrazolo[3,4-b]pyrazin-6-yl]-8-[5-(trifluoromethyl)pyridin-3-yl]-2,8-diazaspiro[4.5]decane] cannot be ordered by EC50: < 10 µM for the first, < 10 µM for the second.

First: FC(F)Cn1ncc2ncc(N3CCC4(CCN(c5cccc(C(F)(F)F)n5)CC4)C3)nc21 [Compound 149, 2-[1-(2,2-difluoroethyl)-1H-pyrazolo[3,4-b]pyrazin-6-yl]-8-[6-(trifluoromethyl)pyridin-2-yl]-2,8-diazaspiro[4.5]decane]
Second: FC(F)Cn1ncc2ncc(N3CCC4(CCN(c5ccc(C(F)(F)F)cn5)CC4)C3)nc21 [Compound 150, 2-[1-(2,2-difluoroethyl)-1H-pyrazolo[3,4-b]pyrazin-6-yl]-8-[5-(trifluoromethyl)pyridin-2-yl]-2,8-diazaspiro[4.5]decane]
The EC50 of the first is lower: < 10 µM for the first, 10 to 50 µM for the second.

Compared with `FC(F)Cn1ncc2ncc(N3CCC4(CCN(c5ncccc5C(F)(F)F)CC4)C3)nc21` [Compound 151, 2-[1-(2,2-difluoroethyl)-1H-pyrazolo[3,4-b]pyrazin-6-yl]-8-[3-(trifluoromethyl)pyridin-2-yl]-2,8-diazaspiro[4.5]decane], `FC(F)Cn1ncc2ncc(N3CCC4(CCN(c5ccnc(C(F)(F)F)c5)CC4)C3)nc21` [Compound 155, 2-[1-(2,2-difluoroethyl)-1H-pyrazolo[3,4-b]pyrazin-6-yl]-8-[2-(trifluoromethyl)pyridin-4-yl]-2,8-diazaspiro[4.5]decane] is lower in EC50: 10 to 50 µM for the first, < 10 µM for the second.

`FC(F)Cn1ncc2ncc(N3CCC4(CCN(c5ccnc(C(F)(F)F)c5)C4)CC3)nc21` [Compound 154, 8-[1-(2,2-difluoroethyl)-1H-pyrazolo[3,4-b]pyrazin-6-yl]-2-[2-(trifluoromethyl)pyridin-4-yl]-2,8-diazaspiro[4.5]decane] and `FC(F)Cn1ncc2ncc(N3CCC4(CC3)CCN(c3ccncc3C(F)(F)F)C4)nc21` [Compound 156, 8-[1-(2,2-difluoroethyl)-1H-pyrazolo[3,4-b]pyrazin-6-yl]-2-[3-(trifluoromethyl)pyridin-4-yl]-2,8-diazaspiro[4.5]decane] cannot be ordered by EC50: < 10 µM for the first, < 10 µM for the second.

With `FC(F)Cn1ncc2ncc(N3CC4(CCCN(c5ccc(C(F)F)nc5)C4)C3)nc21` [Compound 157, 2-[1-(2,2-difluoroethyl)-1H-pyrazolo[3,4-b]pyrazin-6-yl]-6-[6-(difluoromethyl)pyridin-3-yl]-2,6-diazaspiro[3.5]nonane] the EC50 was > 100 µM.
